Assay results reported in patent US12187709B2 (Genentech, Inc., priority 2021, dated 2025).

Legend:
[1] = biological target: c-Cbl (residues 47-435) (Homo sapiens (Human), UniProt P22681); assay: c-Cbl SPR assay; format: binding; details: 20° C.
How it was run: (§1)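 Captured protein (1300-1500 RU for both isoforms) was probed in multi-cycle kinetics with 6 concentrations in 2-fold dilution, 60 s contact, 40 μl/min, dissociation 120-1200 s, double-referenced. Kinetic and affinity parameters came from a 1:1 binding fit. For slow off-rates, kd was set independently by a chaser-based method.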

[2] = biological target: c-Cbl (Homo sapiens (Human), UniProt P22681); assay: C-Cbl LCK Ub TR-FRET assay (C-cbl Lck HTRF); format: biochemical
How it was run: (§2)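 Detection reagents added, brief spin, 20 min RT. IC50 fit normalized to no-LCK (low) and DMSO (high) controls.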

[3] = biological target: Human Cbl-b (residues 40-426) (Homo sapiens (Human), UniProt Q13191); assay: Cbl-b SPR assay; format: binding; details: for Fold of selectivity: C-cbl SPR Kd vs Cbl-b SPR Kd; for Kd: SPR, 20° C.
How it was run: as §1

[4] = biological target: Cbl-b (Homo sapiens (Human), UniProt Q13191); assay: Cbl-b LCK Ub TR-FRET assay (Cbl-b Lck HTRF); format: biochemical; details: for IC50: Cbl-b LCK Ub TR-FRET; for (fold-selectivity) Cbl-b and C-Cbl Selectivity / fold-selectivity (Cbl-b over C-cbl): ratio C-cbl Lck HTRF IC50 / Cbl-b Lck HTRF IC50
How it was run: as §2

Sequence of c-Cbl (P22681 47-435): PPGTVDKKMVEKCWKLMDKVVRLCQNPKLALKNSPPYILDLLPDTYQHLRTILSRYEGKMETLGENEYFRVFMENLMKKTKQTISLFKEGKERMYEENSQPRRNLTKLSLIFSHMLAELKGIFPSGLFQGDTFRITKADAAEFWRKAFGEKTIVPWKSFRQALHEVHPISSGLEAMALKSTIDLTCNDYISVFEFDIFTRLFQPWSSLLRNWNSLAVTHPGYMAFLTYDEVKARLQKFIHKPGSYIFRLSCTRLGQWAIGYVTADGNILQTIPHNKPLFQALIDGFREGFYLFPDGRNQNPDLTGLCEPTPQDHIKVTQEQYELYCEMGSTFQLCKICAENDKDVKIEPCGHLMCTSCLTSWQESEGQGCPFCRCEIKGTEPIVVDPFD
Sequence of c-Cbl (residues 47-435) (P22681 47-435): as above
Sequence of Cbl-b (Q13191 40-426): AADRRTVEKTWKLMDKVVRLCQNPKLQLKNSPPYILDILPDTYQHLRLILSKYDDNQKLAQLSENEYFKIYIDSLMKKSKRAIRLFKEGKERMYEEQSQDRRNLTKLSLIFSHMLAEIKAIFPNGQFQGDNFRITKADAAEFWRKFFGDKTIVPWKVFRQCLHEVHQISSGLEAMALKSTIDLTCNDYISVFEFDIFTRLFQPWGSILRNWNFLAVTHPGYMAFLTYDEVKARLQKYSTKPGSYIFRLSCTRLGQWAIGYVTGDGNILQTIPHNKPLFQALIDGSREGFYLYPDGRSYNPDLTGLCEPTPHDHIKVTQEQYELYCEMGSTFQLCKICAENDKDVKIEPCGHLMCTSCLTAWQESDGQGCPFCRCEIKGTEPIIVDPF
Sequence of Human Cbl-b (residues 40-426) (Q13191 40-426): as above

Compound	Kd [1] [nM]	IC50 [2] [nM]	Fold of selectivity [3] [×]	Kd [3] [nM]	IC50 ([4]; Example 121) [nM]	(fold-selectivity) Cbl-b and C-Cbl Selectivity [4] [x]	IC50 [4] [nM]	fold-selectivity (Cbl-b over C-cbl) [4]
CO[C@H]1C[C@@](c2cc(NC3CC3)cc(N3Cc4c(cc(CNC5(C)CCC5)cc4C(F)(F)F)C3=O)c2)(c2nncn2C)C1 [Compound 231, 2-(3-(cyclopropylamino)-5-((1s,3s)-3-methoxy-1-(4-methyl-4H-1,2,4-triazol-3-yl)cyclobutyl)phenyl)-6-(((1-methylcyclobutyl)amino)methyl)-4-(trifluoromethyl)isoindolin-1-one]	8.1	17	5.4	1.5			11	1.5x
Cn1cnnc1[C@H](c1cccc(N2Cc3c(cc(CNC4(C)CCC4)cc3C(F)(F)F)C2=O)c1)C1CC(F)C1 (single isomer, unassigned) [Compound 128]	3000	1300	13	230			240	4.9x
Cn1cnnc1C1(c2cccc(N3Cc4c(cc(CNC5(C)CCC5)cc4C(F)(F)F)C3=O)c2)CC(F)(F)C1 [Compound 61, 2-(3-(3,3-difluoro-1-(4-methyl-4H-1,2,4-triazol-3-yl)cyclobutyl)phenyl)-6-(((1-methylcyclobutyl)amino)methyl)-4-(trifluoromethyl)isoindolin-1-one]	20	25.5	5.2	3.7			15	(1.7x)
CC(C)O[C@H]1C[C@@](c2cccc(N3Cc4c(cc(CNC5(C)CCC5)cc4C(F)(F)F)C3=O)c2)(c2nncn2C)C1 [Compound 222, 2-(3-((1s,3s)-3-isopropoxy-1-(4-methyl-4H-1,2,4-triazol-3-yl)cyclobutyl)phenyl)-6-(((1-methylcyclobutyl)amino)methyl)-4-(trifluoromethyl)isoindolin-1-one]	200	270	13	14			64	4.2x
Cn1cnnc1[C@@](O)(c1cccc(N2Cc3c(cc(CNC4(C)CCC4)cc3C(F)(F)F)C2=O)c1)C1CCC1 (single isomer, unassigned) [Compound 2]	29	24	13	2.3			16	(1.5x)
C[C@H]1C[C@](c2cccc(N3Cc4c(cc(CNC5(C)CCC5)cc4C(F)(F)F)C3=O)c2)(c2nncn2C)O1 [Compound 125, 2-(3-((2S,4S)-4-methyl-2-(4-methyl-4H-1,2,4-triazol-3-yl)oxetan-2-yl)phenyl)-6-(((1-methylcyclobutyl)amino)methyl)-4-(trifluoromethyl)isoindolin-1-one]	1500	2300	11	130			410	5.7x
Cn1cnnc1[C@]1(c2cccc(N3Cc4c(cc(CNC5(C)CCC5)cc4C(F)(F)F)C3=O)c2)CCC(F)(F)C1 (single isomer, unassigned) [Compound 107]	1700	1800	6.8	250			300	6.0x
Cn1cnnc1[C@]1(c2cccc(N3Cc4c(cc(CNC5(C)CCC5)cc4C(F)(F)F)C3=O)c2)C[C@H](O)C1 [Compound 21, 2-(3-((1s,3s)-3-hydroxy-1-(4-methyl-4H-1,2,4-triazol-3-yl)cyclobutyl)phenyl)-6-(((1-methylcyclobutyl)amino)methyl)-4-(trifluoromethyl)isoindolin-1-one]	22	41	5.3	4.1			18	(2.3x)
Cn1cnnc1[C@]1(c2cc(NC3CCCC3)cc(N3Cc4c(cc(CNC5(C)CCC5)cc4C(F)(F)F)C3=O)c2)C[C@@H](C)C1 [Compound 183, 2-(3-(cyclopentylamino)-5-((1r,3r)-3-methyl-1-(4-methyl-4H-1,2,4-triazol-3-yl)cyclobutyl)phenyl)-6-(((1-methylcyclobutyl)amino)methyl)-4-(trifluoromethyl)isoindolin-1-one]	18	58	5.8	3.2			18	3.4x
Cn1cnnc1[C@]1(c2cccc(N3Cc4c(cc(CNC5(C)CCC5)cc4C(F)(F)F)C3=O)c2)C[C@H](OCC#N)C1 [Compound 280, 2-((1s,3s)-3-(4-methyl-4H-1,2,4-triazol-3-yl)-3-(3-(6-(((1-methylcyclobutyl)amino)methyl)-1-oxo-4-(trifluoromethyl)isoindolin-2-yl)phenyl)cyclobutoxy)acetonitrile]	7.2	11	7.0	1.1			6.8	1.6x
CC1=C[C@@](c2cc(NC3CCC3)nc(N3Cc4c(cc(CN5CCN(C)C[C@@H]5C(C)C)cc4C(F)(F)F)C3=O)c2)(c2nncn2C)C1 (single isomer, unassigned) [Compound 71]	34	16.8	9.1	3.7			14	(1.2x)

Now from value to compound:

Kd [1] [nM]	IC50 [2] [nM]	Fold of selectivity [3] [×]	Kd [3] [nM]	IC50 ([4]; Example 121) [nM]	(fold-selectivity) Cbl-b and C-Cbl Selectivity [4] [x]	IC50 [4] [nM]	fold-selectivity (Cbl-b over C-cbl) [4]	Compound
1.3	5.8	3.1	0.4	5.3	1.1			Cn1cnnc1[C@@H](c1cccc(N2Cc3c(cc([C@H](NC4(C)CCC4)C4CC4)cc3C(F)(F)F)C2=O)c1)C1COC1 (single isomer, unassigned) [Compound 431]
1.2	6.6	2.4	0.5			5.6	1.2x	Cn1cnnc1[C@@H](c1cccc(N2Cc3c(cc(CNC4(C)CCC4)cc3C(F)(F)F)C2=O)c1)C1CC1 (single isomer, unassigned) [Compound 342]
770	780	1.8	440	540	1.4			Cn1cnnc1[C@@H](c1cc(Cl)cc(N2Cc3c(cc(CNC4(C)CCC4)cc3C(F)(F)F)C2=O)c1)C1COC1 (single isomer, unassigned) [Compound 408]
4100	2400	18	230	360	6.5			Cn1cnnc1[C@H](c1cccc(N2Cc3c(cc([C@H](NC4(C)CCC4)C4CC4)cc3C(F)(F)F)C2=O)c1)C1COC1 (single isomer, unassigned) [Compound 456]
1300	3400	7.5	180			310	11x	CCOC1CC([C@H](c2cccc(N3Cc4c(cc(CNC5(C)CCC5)cc4C(F)(F)F)C3=O)c2)c2nncn2C)C1 (single isomer, unassigned) [Compound 265]
28	27	14	2			7.8	3.5x	C[C@H](NC1(C)CCC1)c1cc(Cl)c2c(c1)C(=O)N(c1cccc([C@]3(c4nncn4C)C[C@H](F)C3)c1)C2 (single isomer, unassigned) [Compound 312]
1.5	4.5	2.9	0.35	4.4	1.0			CO[C@H]1C[C@](c2cccc(N3Cc4c(cc(CN[C@@H](C)C5CCC5)cc4C(F)(F)F)C3=O)c2)(c2nncn2C)C1 [Compound 470, 6-((((S)-1-cyclobutylethyl)amino)methyl)-2-(3-((1r,3S)-3-methoxy-1-(4-methyl-4H-1,2,4-triazol-3-yl)cyclobutyl)phenyl)-4-(trifluoromethyl)isoindolin-1-one]
3300	2800	18	180	260	11			C[C@H](NC1(C)CCC1)c1cc2c(c(C(F)(F)F)c1)CN(c1cccc([C@@H](c3nncn3C)C3COC3)c1)C2=O (single isomer, unassigned) [Compound 442]
68	51	14	4.8	11	4.8			CO[C@H]1C[C@](c2cccc(N3Cc4c(cc(CNCC5(C)CC5)cc4C(F)(F)F)C3=O)c2)(c2nncn2C)C1 [Compound 474, 2-(3-((1r,3r)-3-methoxy-1-(4-methyl-4H-1,2,4-triazol-3-yl)cyclobutyl)phenyl)-6-((((1-methylcyclopropyl)methyl)amino)methyl)-4-(trifluoromethyl)isoindolin-1-one]
840	590	10	84			92	6.4x	CO[C@H]1C[C@](c2cccc(N3Cc4c(cc([C@H](N)C(C)(C)C)cc4C(F)(F)F)C3=O)c2)(c2nncn2C)C1 (single isomer, unassigned) [Compound 360]
